{
  "source": "patent US20100267637A1",
  "about": "“TREATMENT OF MELANOMA WITH ALPHA THYMOSIN PEPTIDES IN COMBINATION WITH A KINASE INHIBITOR” (SciClone Pharmaceuticals, Inc., priority 2007, published 2010)",
  "system": "murine B16 melanoma cells",
  "experiment": "Anti-tumor effect: tumor size / tumor volume in mice bearing subcutaneous B16 melanoma",
  "format": "in vivo, C57BL/6 mice",
  "design": "key to Tumor measurement L (length) / Tumor measurement W (width): The sign “—” indicates that tumor does not reach a measurable size",
  "details": "for Tumor Volume (cm^3) (Mean ± SD): group mean; for PI (TV), percent inhibition of tumor volume: vs vehicle",
  "experimental": "The toxic effects of the dosing regimens were also monitored. […] Meanwhile 9H10 was given in two groups via i.p. on Day 3, 6 and 9. […] Tumor volume and body weight were measured every three days, and tumor weights were measured on Day 16 at the end of the study.\nAs per aseptic tissue culture procedures, one vial of B16 melanoma cells was removed from the liquid nitrogen stock, and placed into a 37° C. water bath. Gentle swirling was conducted until the content of the vial was thawed. Using tissue culture/sterile procedures, the cells were immediately centrifuged with a TD5A-WS centrifuge at 1000 rpm, 20-25° C., 5 min. After centrifugation, the cells were suspended in 0.1 to 0.5 mL normal saline (NS) and subcutaneously injected into 10 mice (0.1 mL/mouse, about 1×10^6 cells). After 7-10 days, when the tumor diameter was approximately 1 cm, the animals were euthanized with CO2 overdose and the tumors excised. The procedure was repeated with 20 mice to generate a sufficient number of B16 melanoma cells with adequate transplantability.\nOn the day of tumor implantation, approximately 1×10^6 cells in 0.1 mL were subcutaneously injected on the right axillary area of each mouse. The day of tumor implantation was defined as Day 0.\nOn Day 3, the animals were randomly assigned into nine different weight-matched and tumor-size-matched groups. Dosing was started on Day 3 using the regimen according to Table 2.\nFrom Day 1 to Day 15, mortality and moribundity were checked twice daily, the body weights were recorded once every 3 days, and tumors were measured using a caliper once every 3 days. At the end of the study (Day 16), the animals were euthanized by CO2 asphyxiation, and the tumors were excised and weighed.\nBased on the tumor size, the tumor volume (TV) was calculated with the formula: [TV=(Length×Width×Width)/2]. And the percent inhibition (PI) of TV (PITV) was calculated according to the equation below:\nPITV(%)=(TV vehicle−TVdrug treated)/TV vehicle×100\nInter-group comparison was performed in terms of tumor volume, tumor weight and body weight, using a student's t test. P values of less than 0.05 were considered to be statistically significant.",
  "note": "Where no end group is shown, it is not given here.",
  "data": [
    {"substance": "Thymosin Alpha-1 (Ac-SDAAVDTSSEITTKDLKEKKEVVEEAEN; ends and bridges not checked; UniProt P06454 2-29, looked up) [TA-1, 28 amino acid peptide, immunomodulator; test article (SciClone), 6 mg/kg s.c. daily]", "values": [
      {"measurement": "Tumor measurement L (length)", "setting": "Day 3, animal F1", "result": "—"},
      {"measurement": "Tumor measurement W (width)", "setting": "Day 3, animal F1", "result": "—"},
      {"measurement": "Tumor volume", "setting": "Day 3, animal F1", "result": 0.0000, "unit": "cm^3"},
      {"measurement": "Tumor measurement L (length)", "setting": "Day 3, animal F2", "result": "—"},
      {"measurement": "Tumor measurement W (width)", "setting": "Day 3, animal F2", "result": "—"},
      {"measurement": "Tumor volume", "setting": "Day 3, animal F2", "result": 0.0000, "unit": "cm^3"},
      {"measurement": "Tumor measurement L (length)", "setting": "Day 3, animal F3", "result": "—"},
      {"measurement": "Tumor measurement W (width)", "setting": "Day 3, animal F3", "result": "—"},
      {"measurement": "Tumor volume", "setting": "Day 3, animal F3", "result": 0.0000, "unit": "cm^3"},
      {"measurement": "Tumor measurement L (length)", "setting": "Day 3, animal F4", "result": 0.10, "unit": "cm"},
      {"measurement": "Tumor measurement W (width)", "setting": "Day 3, animal F4", "result": 0.10, "unit": "cm"},
      {"measurement": "Tumor volume", "setting": "Day 3, animal F4", "result": 0.0005, "unit": "cm^3"},
      {"measurement": "Tumor measurement L (length)", "setting": "Day 3, animal F5", "result": "—"},
      {"measurement": "Tumor measurement W (width)", "setting": "Day 3, animal F5", "result": "—"},
      {"measurement": "Tumor volume", "setting": "Day 3, animal F5", "result": 0.0000, "unit": "cm^3"},
      {"measurement": "Tumor measurement L (length)", "setting": "Day 3, animal M1", "result": "—"},
      {"measurement": "Tumor measurement W (width)", "setting": "Day 3, animal M1", "result": "—"},
      {"measurement": "Tumor volume", "setting": "Day 3, animal M1", "result": 0.0000, "unit": "cm^3"},
      {"measurement": "Tumor measurement L (length)", "setting": "Day 3, animal M2", "result": "—"},
      {"measurement": "Tumor measurement W (width)", "setting": "Day 3, animal M2", "result": "—"},
      {"measurement": "Tumor volume", "setting": "Day 3, animal M2", "result": 0.0000, "unit": "cm^3"},
      {"measurement": "Tumor measurement L (length)", "setting": "Day 3, animal M3", "result": "—"},
      {"measurement": "Tumor measurement W (width)", "setting": "Day 3, animal M3", "result": "—"},
      {"measurement": "Tumor volume", "setting": "Day 3, animal M3", "result": 0.0000, "unit": "cm^3"},
      {"measurement": "Tumor measurement L (length)", "setting": "Day 3, animal M4", "result": "—"},
      {"measurement": "Tumor measurement W (width)", "setting": "Day 3, animal M4", "result": "—"},
      {"measurement": "Tumor volume", "setting": "Day 3, animal M4", "result": 0.0000, "unit": "cm^3"},
      {"measurement": "Tumor measurement L (length)", "setting": "Day 3, animal M5", "result": "—"},
      {"measurement": "Tumor measurement W (width)", "setting": "Day 3, animal M5", "result": "—"},
      {"measurement": "Tumor volume", "setting": "Day 3, animal M5", "result": 0.0000, "unit": "cm^3"},
      {"measurement": "Tumor Volume (cm^3) (Mean ± SD)", "setting": "Day 3", "result": "0.000 ± 0.0002", "unit": "cm^3"},
      {"measurement": "PI (TV), percent inhibition of tumor volume", "setting": "Day 3", "result": 50.00, "unit": "%"},
      {"measurement": "Tumor measurement L (length)", "setting": "Day 6, animal F1", "result": "—"},
      {"measurement": "Tumor measurement W (width)", "setting": "Day 6, animal F1", "result": "—"},
      {"measurement": "Tumor volume", "setting": "Day 6, animal F1", "result": 0.0000, "unit": "cm^3"},
      {"measurement": "Tumor measurement L (length)", "setting": "Day 6, animal F2", "result": "—"},
      {"measurement": "Tumor measurement W (width)", "setting": "Day 6, animal F2", "result": "—"},
      {"measurement": "Tumor volume", "setting": "Day 6, animal F2", "result": 0.0000, "unit": "cm^3"},
      {"measurement": "Tumor measurement L (length)", "setting": "Day 6, animal F3", "result": "—"},
      {"measurement": "Tumor measurement W (width)", "setting": "Day 6, animal F3", "result": "—"},
      {"measurement": "Tumor volume", "setting": "Day 6, animal F3", "result": 0.0000, "unit": "cm^3"},
      {"measurement": "Tumor measurement L (length)", "setting": "Day 6, animal F4", "result": "—"},
      {"measurement": "Tumor measurement W (width)", "setting": "Day 6, animal F4", "result": "—"},
      {"measurement": "Tumor volume", "setting": "Day 6, animal F4", "result": 0.0000, "unit": "cm^3"},
      {"measurement": "Tumor measurement L (length)", "setting": "Day 6, animal F5", "result": "—"},
      {"measurement": "Tumor measurement W (width)", "setting": "Day 6, animal F5", "result": "—"},
      {"measurement": "Tumor volume", "setting": "Day 6, animal F5", "result": 0.0000, "unit": "cm^3"},
      {"measurement": "Tumor measurement L (length)", "setting": "Day 6, animal M1", "result": "—"},
      {"measurement": "Tumor measurement W (width)", "setting": "Day 6, animal M1", "result": "—"},
      {"measurement": "Tumor volume", "setting": "Day 6, animal M1", "result": 0.0000, "unit": "cm^3"},
      {"measurement": "Tumor measurement L (length)", "setting": "Day 6, animal M2", "result": "—"},
      {"measurement": "Tumor measurement W (width)", "setting": "Day 6, animal M2", "result": "—"},
      {"measurement": "Tumor volume", "setting": "Day 6, animal M2", "result": 0.0000, "unit": "cm^3"},
      {"measurement": "Tumor measurement L (length)", "setting": "Day 6, animal M3", "result": "—"},
      {"measurement": "Tumor measurement W (width)", "setting": "Day 6, animal M3", "result": "—"},
      {"measurement": "Tumor volume", "setting": "Day 6, animal M3", "result": 0.0000, "unit": "cm^3"},
      {"measurement": "Tumor measurement L (length)", "setting": "Day 6, animal M4", "result": "—"},
      {"measurement": "Tumor measurement W (width)", "setting": "Day 6, animal M4", "result": "—"},
      {"measurement": "Tumor volume", "setting": "Day 6, animal M4", "result": 0.0000, "unit": "cm^3"},
      {"measurement": "Tumor measurement L (length)", "setting": "Day 6, animal M5", "result": "—"},
      {"measurement": "Tumor measurement W (width)", "setting": "Day 6, animal M5", "result": "—"},
      {"measurement": "Tumor volume", "setting": "Day 6, animal M5", "result": 0.0000, "unit": "cm^3"},
      {"measurement": "Tumor Volume (cm^3) (Mean ± SD)", "setting": "Day 6", "result": "0.000 ± 0.0000", "unit": "cm^3"},
      {"measurement": "PI (TV), percent inhibition of tumor volume", "setting": "Day 6", "result": 100.00, "unit": "%"},
      {"measurement": "Tumor measurement L (length)", "setting": "Day 9, animal F1", "result": 0.10, "unit": "cm"},
      {"measurement": "Tumor measurement W (width)", "setting": "Day 9, animal F1", "result": 0.10, "unit": "cm"},
      {"measurement": "Tumor volume", "setting": "Day 9, animal F1", "result": 0.0005, "unit": "cm^3"},
      {"measurement": "Tumor measurement L (length)", "setting": "Day 9, animal F2", "result": 0.10, "unit": "cm"},
      {"measurement": "Tumor measurement W (width)", "setting": "Day 9, animal F2", "result": 0.10, "unit": "cm"},
      {"measurement": "Tumor volume", "setting": "Day 9, animal F2", "result": 0.0005, "unit": "cm^3"},
      {"measurement": "Tumor measurement L (length)", "setting": "Day 9, animal F3", "result": 0.10, "unit": "cm"},
      {"measurement": "Tumor measurement W (width)", "setting": "Day 9, animal F3", "result": 0.10, "unit": "cm"},
      {"measurement": "Tumor volume", "setting": "Day 9, animal F3", "result": 0.0005, "unit": "cm^3"},
      {"measurement": "Tumor measurement L (length)", "setting": "Day 9, animal F4", "result": 0.20, "unit": "cm"},
      {"measurement": "Tumor measurement W (width)", "setting": "Day 9, animal F4", "result": 0.20, "unit": "cm"},
      {"measurement": "Tumor volume", "setting": "Day 9, animal F4", "result": 0.0040, "unit": "cm^3"},
      {"measurement": "Tumor volume", "setting": "Day 9, animal F5", "result": 0.0000, "unit": "cm^3"},
      {"measurement": "Tumor measurement L (length)", "setting": "Day 9, animal M1", "result": 0.10, "unit": "cm"},
      {"measurement": "Tumor measurement W (width)", "setting": "Day 9, animal M1", "result": 0.10, "unit": "cm"},
      {"measurement": "Tumor volume", "setting": "Day 9, animal M1", "result": 0.0005, "unit": "cm^3"}
    ]}
  ]
}
